Data: patent publication US20220031800A1, “PEPTIDES FOR TREATING NON-EXUDATIVE MACULAR DEGENERATION AND OTHER DISORDERS OF THE EYE” (Allegro Pharmaceuticals, LLC, priority 2019, published 2022)
Square brackets hold non-standard residues; d marks the D form. Peptide text beside a SMILES is read from it. Cya = N[C@@H](CS(=O)(=O)O)C(=O)O

Test system: study eye of subjects with intermediate non-exudative AMD
Experiment: SD-OCT Analysis 2 (thickness, volume, map coverage of retinal layers)
Format: in vivo, human
Details: change from baseline at Week 32
Experimental: Numerous study assessments were conducted at various time points throughout the study. Included among these study assessments were; refractive eye examinations, determinations of BCVA AND low-luminance BCVA, Lanthony D-15 color vision test, measurement of intraocular pressure (IOP), Indirect ophthalmoscopy/dilated fundus examinations and spectral-domain optical coherence tomography (SD-OCT). Also, blood and saliva samples were obtained from each subject for genetic analysis. The above-listed study assessments were performed at the time points indicated in Table 1, below: The OCT scans were analyzed by two (2) unrelated experts. In Analysis #2, the OCT images of study eyes were analyzed to determine mean thickness and mean volume of numerous retinal subfields and layer segments at baseline and at Week 12 for sham eyes and at baseline and at Week 32 for risuteganib eyes, to document any significant differences between groups of eyes based on baseline measurements or changes from baseline in those measurements. In addition to the quantitative analysis of OCT images, OCT Analysis #2 included qualitative assessment of the OCT images to identify GA, pseudodrusen, and disruption of the ELM and EZ layers. FIGS. 9A, 9B and 9C illustrate the level of varying pathology within the ELM based on quantitative mapping that were also assessed, with FIG. 9A (left) showing no ELM disruption, FIG. 9B (center) showing segmental disruption, and FIG. 9C showing diffuse disruption.

[1] = risuteganib nonresponder eyes, n = 12

**Q.** What does the source list for `C[C@@H](O)[C@H](NC(=O)[C@H](CS(=O)(=O)O)NC(=O)CNC(=O)[C@H](CCCNC(=N)N)NC(=O)CN)C(=O)N1CCC[C@H]1C(=O)O` [risuteganib, Glycyl-L-arginylglycyl-3-sulfo-L-alanyl-L-threonyl-L-proline] (H-GRG[Cya]TP-OH)?
**A.** Change in mean thickness, ONL-RPE foveal center (Risuteganib Responder eyes): 0.650 μm; Change in mean thickness, ONL-RPE mid subfield (Risuteganib Responder eyes): −6.561 μm; Change in mean thickness, RPE-BM central subfield (Risuteganib Responder eyes): −8.238 μm; Change in mean thickness, RPE-BM foveal center (Risuteganib Responder eyes): −12.512 μm; Change in mean thickness, RPE-BM mid subfield (Risuteganib Responder eyes): −5.287 μm; Change in mean thickness, Total retinal central subfield (Risuteganib Responder eyes): −0.691 μm; Change in mean thickness, Total retinal foveal center (Risuteganib Responder eyes): 0.804 μm; Change in mean thickness, Total retinal mid subfield (Risuteganib Responder eyes): −1.049 μm; Change in volume, ELM-EZ central subfield (Risuteganib Responder eyes): −0.002 mm^3; Change in volume, ELM-EZ mid subfield (Risuteganib Responder eyes): −0.003 mm^3; Change in volume, ELM-RPE (Risuteganib Responder eyes): 0.086 mm^3; Change in volume, ELM-RPE central subfield (Risuteganib Responder eyes): −0.002 mm^3; Change in volume, ELM-RPE mid subfield (Risuteganib Responder eyes): −0.007 mm^3; Change in volume, EZ-RPE (Risuteganib Responder eyes): −0.059 mm^3; Change in volume, EZ-RPE central subfield (Risuteganib Responder eyes): −0.001 mm^3; Change in volume, EZ-RPE mid subfield (Risuteganib Responder eyes): −0.004 mm^3; Change in volume, ONL-EZ central subfield (Risuteganib Responder eyes): −0.004 mm^3; Change in volume, ONL-EZ mid subfield (Risuteganib Responder eyes): −0.017 mm^3; Change in volume, ONL-RPE (Risuteganib Responder eyes): 0.009 mm^3; Change in volume, ONL-RPE central subfield (Risuteganib Responder eyes): −0.005 mm^3; Change in volume, ONL-RPE mid subfield (Risuteganib Responder eyes): −0.021 mm^3; Change in volume, RPE-BM (Risuteganib Responder eyes): −0.049 mm^3; Change in volume, RPE-BM central subfield (Risuteganib Responder eyes): −0.007 mm^3; Change in volume, RPE-BM mid subfield (Risuteganib Responder eyes): −0.017 mm^3; Change in volume, Total retinal (Risuteganib Responder eyes): −0.188 mm^3; Change in volume, Total retinal central subfield (Risuteganib Responder eyes): 0.000 mm^3; Change in volume, Total retinal mid subfield (Risuteganib Responder eyes): −0.004 mm^3; Map coverage, 0 μm EZ (Risuteganib Responder eyes): 3.679%; Map coverage, 0 μm RPE-BM (Risuteganib Responder eyes): 1.099%; Map coverage, 10 μm EZ (Risuteganib Responder eyes): 3.699%; Map coverage, 20 μm EZ (Risuteganib Responder eyes): 3.574%; Map coverage, 50 μm RPE-BM (Risuteganib Responder eyes): −3.49%; Map coverage, 150 μm RPE-BM (Risuteganib Responder eyes): 3.335%; Map coverage, 250 μm RPE-BM (Risuteganib Responder eyes): −0.011%; Change in mean thickness, ELM-EZ central subfield (risuteganib arm, n = 24): −1.827 μm; Change in mean thickness, ELM-EZ mid subfield (risuteganib arm, n = 24): −0.106 μm; Change in mean thickness, ELM-RPE central subfield (risuteganib arm, n = 24): −2.912 μm; Change in mean thickness, ELM-RPE foveal center (risuteganib arm, n = 24): −6.094 μm; Change in mean thickness, ELM-RPE mid subfield (risuteganib arm, n = 24): −1.593 μm; Change in mean thickness, EZ-RPE central subfield (risuteganib arm, n = 24): −1.085 μm; Change in mean thickness, EZ-RPE foveal center (risuteganib arm, n = 24): −0.407 μm; Change in mean thickness, EZ-RPE mid subfield (risuteganib arm, n = 24): −1.486 μm; Change in mean thickness, Inner retina central subfield (risuteganib arm, n = 24): 3.880 μm; Change in mean thickness, Inner retina mid subfield (risuteganib arm, n = 24): 3.893 μm; Change in mean thickness, ONL-EZ central subfield (risuteganib arm, n = 24): −6.131 μm; Change in mean thickness, ONL-EZ mid subfield (risuteganib arm, n = 24): −4.954 μm; Change in mean thickness, ONL-RPE central subfield (risuteganib arm, n = 24): −7.216 μm; Change in mean thickness, ONL-RPE foveal center (risuteganib arm, n = 24): −3.488 μm; Change in mean thickness, ONL-RPE mid subfield (risuteganib arm, n = 24): −6.441 μm; Change in mean thickness, RPE-BM central subfield (risuteganib arm, n = 24): −4.178 μm; Change in mean thickness, RPE-BM foveal center (risuteganib arm, n = 24): −8.126 μm; Change in mean thickness, RPE-BM mid subfield (risuteganib arm, n = 24): −2.086 μm; Change in mean thickness, Total retinal central subfield (risuteganib arm, n = 24): −3.336 μm; Change in mean thickness, Total retinal foveal center (risuteganib arm, n = 24): −4.154 μm; Change in mean thickness, Total retinal mid subfield (risuteganib arm, n = 24): −2.548 μm; Change in volume, ELM-EZ central subfield (risuteganib arm, n = 24): −0.001 mm^3; Change in volume, ELM-EZ mid subfield (risuteganib arm, n = 24): 0.000 mm^3; Change in volume, ELM-RPE (risuteganib arm, n = 24): 0.048 mm^3; Change in volume, ELM-RPE central subfield (risuteganib arm, n = 24): −0.002 mm^3; Change in volume, ELM-RPE mid subfield (risuteganib arm, n = 24): −0.005 mm^3; Change in volume, EZ-RPE (risuteganib arm, n = 24): −0.027 mm^3; Change in volume, EZ-RPE central subfield (risuteganib arm, n = 24): −0.001 mm^3; Change in volume, EZ-RPE mid subfield (risuteganib arm, n = 24): −0.005 mm^3; Change in volume, ONL-EZ central subfield (risuteganib arm, n = 24): −0.005 mm^3; Change in volume, ONL-EZ mid subfield (risuteganib arm, n = 24): −0.016 mm^3; Change in volume, ONL-RPE (risuteganib arm, n = 24): −0.009 mm^3; Change in volume, ONL-RPE central subfield (risuteganib arm, n = 24): −0.005 mm^3; Change in volume, ONL-RPE mid subfield (risuteganib arm, n = 24): −0.020 mm^3; Change in volume, RPE-BM (risuteganib arm, n = 24): −0.006 mm^3; Change in volume, RPE-BM central subfield (risuteganib arm, n = 24): −0.003 mm^3; Change in volume, RPE-BM mid subfield (risuteganib arm, n = 24): −0.007 mm^3; Change in volume, Total retinal (risuteganib arm, n = 24): −0.048 mm^3; Change in volume, Total retinal central subfield (risuteganib arm, n = 24): −0.002 mm^3; Change in volume, Total retinal mid subfield (risuteganib arm, n = 24): −0.008 mm^3; Map coverage, 0 μm EZ (risuteganib arm, n = 24): 2.574%; Map coverage, 0 μm RPE-BM (risuteganib arm, n = 24): 1.282%; Map coverage, 10 μm EZ (risuteganib arm, n = 24): 2.515%; Map coverage, 20 μm EZ (risuteganib arm, n = 24): 2.431%; Map coverage, 50 μm RPE-BM (risuteganib arm, n = 24): −2.644%; Map coverage, 150 μm RPE-BM (risuteganib arm, n = 24): 2.739%; Map coverage, 250 μm RPE-BM (risuteganib arm, n = 24): −0.006%; Change in mean thickness, ELM-EZ central subfield [1]: −1.332 μm; Change in mean thickness, ELM-EZ mid subfield [1]: 0.754 μm; Change in mean thickness, ELM-RPE central subfield [1]: −2.722 μm; Change in mean thickness, ELM-RPE foveal center [1]: −12.189 μm; Change in mean thickness, ELM-RPE mid subfield [1]: −1.044 μm; Change in mean thickness, EZ-RPE central subfield [1]: −1.390 μm; Change in mean thickness, EZ-RPE foveal center [1]: −1.789 μm; Change in mean thickness, EZ-RPE mid subfield [1]: −1.798 μm; Change in mean thickness, Inner retina central subfield [1]: 1.896 μm
